Patent EP4603105A1, “PHARMACEUTICAL COMPOSITION CONTAINING CYCLIC COMPOUND HAVING SELECTIVE KRAS INHIBITORY EFFECT AGAINST HRAS AND NRAS” (CHUGAI SEIYAKU KABUSHIKI KAISHA, priority 2022, dated 2024)
Where two headings read alike, the source gives them in different places.

What was measured:
[1] = biological target: GDP-bound NRAS wild-type protein (Homo sapiens, UniProt P01111); assay: Binding to NRAS by surface plasmon resonance (SPR), KD and KD ratio to KRAS
Method in brief: (§1)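 GDP-bound biotin-Avi RAS captured at ~100–300 RU, 30°C, pH 7.4 HBS containing 10 µM GDP, 10 mM MgCl2, 1 mM DTT, 0.01% Tween 20 and 4% DMSO. KD by 1:1 fitting.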

HRAS wild-type protein = HRAS wild-type protein (Homo sapiens, UniProt P01112); assay: Binding to HRAS by surface plasmon resonance (SPR), KD and KD ratio to KRAS
Chain of HRAS wild-type protein (P01112 whole entry): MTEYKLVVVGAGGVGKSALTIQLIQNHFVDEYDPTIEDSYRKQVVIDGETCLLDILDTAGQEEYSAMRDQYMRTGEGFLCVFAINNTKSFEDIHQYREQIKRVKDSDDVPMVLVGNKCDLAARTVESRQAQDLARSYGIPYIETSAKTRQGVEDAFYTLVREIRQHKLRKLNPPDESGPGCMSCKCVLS
Method in brief: as §1

[2] = tested on: human lung cancer strain NCI-H441; assay: NCI-H441 cell proliferation inhibitory activity (CellTiter-Glo, 4 days); assay type: cell-based; settings: read-out: NCl-H441 IC50
Protocol: A test compound was dispensed into a U-bottom 384-well plate as 40 nL serially diluted dimethyl sulfoxide solutions using a liquid handler Echo (LABCYTE). […] This cell suspension was dispensed in an amount of 40 µL per well into a plate containing the test compound, and cultured at 37°C in a 5% carbon dioxide gas incubator. Four days later, 20 µL of CellTiter-Glo (registered trademark) (Promega) was added to each well and […] was measured. […]

[3] = biological target: GDP-bound KRAS wild-type protein (Homo sapiens, UniProt P01116); assay: Binding to KRAS by surface plasmon resonance (SPR), dissociation constant KD; settings: 1:1 binding model
Chain of GDP-bound KRAS wild-type protein (P01116 1-188 isoform P01116-2): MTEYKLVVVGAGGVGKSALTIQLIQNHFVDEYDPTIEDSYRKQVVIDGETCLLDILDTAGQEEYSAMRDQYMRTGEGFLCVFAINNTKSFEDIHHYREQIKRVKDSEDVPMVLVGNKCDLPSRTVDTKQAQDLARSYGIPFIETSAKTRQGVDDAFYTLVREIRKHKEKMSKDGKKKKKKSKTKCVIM
Method in brief: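 Read-out is KD from 1:1 fitting of single-cycle kinetics sensorgrams, blank-cycle and reference-surface corrected. Proteins were GDP-loaded, biotinylated Avi-fusions freshly captured each cycle at roughly 100–300 RU. Runs were at 30°C in HBS pH 7.4 with MgCl2, GDP and 4% DMSO.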

[4] = tested on: human lung cancer strain NCI-H441; assay type: cell-based
Method in brief: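 Readout: […] after the ATP-based reagent. Compound: serial dilutions in dimethyl sulfoxide.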

[5] = ratio of KD with respect to GDP-bound NRAS wild-type protein to KD with respect to KRAS
[6] = ratio of KD with respect to HRAS wild-type protein to KD with respect to KRAS
[7] = 50% proliferation inhibitory concentration, four days
[8] = ratio of KD for GDP-bound NRAS wild-type protein to KD for KRAS
[9] = ratio of KD for HRAS wild-type protein to KD for KRAS

Chain of GDP-bound NRAS wild-type protein (P01111 whole entry): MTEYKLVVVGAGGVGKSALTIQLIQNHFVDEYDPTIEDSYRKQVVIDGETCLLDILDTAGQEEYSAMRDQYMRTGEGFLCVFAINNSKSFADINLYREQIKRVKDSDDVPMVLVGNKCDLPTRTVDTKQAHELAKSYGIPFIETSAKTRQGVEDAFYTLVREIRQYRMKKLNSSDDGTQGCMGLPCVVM

CCO[C@@H]1C[C@H]2C(=O)NC3(CCC3)C(=O)N(C)[C@@H](C3CCCC3)C(=O)N(C)[C@@H](C(=O)N(C)C)CC(=O)N(C)[C@@H](CC3CCCC3)C(=O)N[C@@H]([C@@H](C)CC)C(=O)N(C)CC(=O)N(C)[C@H]3C/C=C\CCN(C3=O)[C@@H](Cc3ccc(C(F)(F)F)cc3)C(=O)N(C)CC(=O)N[C@@H](CCc3cc(F)c(C(F)(F)F)c(F)c3)C(=O)N2C1 [PP1235]
NRAS /KRAS [1, 5]: B (a compound having 3 or more and less than 10 is denoted as B) | HRAS /KRAS (HRAS wild-type protein; [6]): C (A compound having a KD ratio of 0.1 or more and less than 3 is denoted as C) | IC50 [2, 7]: 386 nM

CCO[C@@H]1C[C@H]2C(=O)NC3(COC3)C(=O)N(C)[C@@H](C3CCCC3)C(=O)N(C)[C@H](C(=O)N(C)C)CC(=O)N(C)[C@@H](CC)C(=O)N[C@@H]([C@@H](C)CC)C(=O)N(C)CC(=O)N(C)[C@H]3C/C=C\CCN(C3=O)[C@@H](Cc3ccc(C(F)(F)F)cc3)C(=O)N(C)CC(=O)N[C@@H](CCc3cc(F)c(C(F)(F)F)c(F)c3)C(=O)N2C1 [PP1278]
IC50 [2, 7]: 45.7 nM

CCO[C@@H]1C[C@H]2C(=O)NC3(CCC3)C(=O)N(C)[C@@H](C3CCCC3)C(=O)N(C)[C@H](C(=O)N3CCOCC3)CC(=O)N(C)[C@@H](CC)C(=O)N[C@@H]([C@@H](C)CC)C(=O)N(C)CC(=O)N(C)[C@H]3C/C=C\CCN(C3=O)[C@@H](Cc3ccc(C(F)(F)F)cc3)C(=O)N(C)CC(=O)N[C@@H](CCc3ccc(C(F)(F)F)c(Cl)c3)C(=O)N2C1 [PP1281]
IC50 [2, 7]: 10.2 nM

CCC[C@H]1C(=O)N[C@@H]([C@@H](C)CC)C(=O)N(C)CC(=O)N(C)[C@H]2C/C=C\CCN(C2=O)[C@@H](Cc2ccc(C(F)(F)F)cc2)C(=O)N(C)CC(=O)N[C@@H](CCc2cc(F)c(C(F)(F)F)c(F)c2)C(=O)N2C[C@H](OCC)C[C@H]2C(=O)NC2(CCC2)C(=O)N(C)[C@@H](C2CCCC2)C(=O)N(C)[C@H](C(=O)N2CCCC2)CC(=O)N1C [PP1299]
IC50 [2, 7]: 11 nM

CC[C@H](C)[C@@H]1NC(=O)[C@H](CC)N(C)C(=O)C[C@@H](C(=O)N2CCOCC2)N(C)C(=O)[C@H](C2CCCC2)N(C)C(=O)C2(CCCC2)NC(=O)[C@@H]2CCCN2C(=O)[C@H](CCc2cc(F)c(C(F)(F)F)c(F)c2)NC(=O)CN(C)C(=O)[C@H](Cc2ccc(C(F)(F)F)cc2)N2CC(C)[C@@H](C)C[C@@H](C2=O)N(C)C(=O)CN(C)C1=O (some centres unmarked) [PP1350]
NRAS /KRAS [1, 5]: B (a compound having 3 or more and less than 10 is denoted as B) | HRAS /KRAS (HRAS wild-type protein; [6]): B (a compound having 3 or more and less than 10 is denoted as B) | IC50 [2, 7]: 20.1 nM

CCCC[C@H]1C(=O)N[C@@H]([C@@H](C)CC)C(=O)N(C)CC(=O)N(C)[C@H]2C/C=C\CCN(C2=O)[C@@H](Cc2ccc(C(F)(F)F)cc2)C(=O)N(C)CC(=O)N[C@@H](CCc2cc(F)c(C(F)(F)F)c(F)c2)C(=O)N2C[C@H](OCC)C[C@H]2C(=O)NC2(CCC2)C(=O)N(C)[C@@H](C2CCCC2)C(=O)N(C)[C@H](C(=O)N2CCCC2)CC(=O)N1C [PP1396]
IC50 [2, 7]: 19.4 nM

CCO[C@@H]1C[C@H]2C(=O)NC3(CCC3)C(=O)N(C)[C@@H](C3CCCC3)C(=O)N(C)[C@H](C(=O)N3CCCC3)CC(=O)N(C)[C@@H](CC3CCC3)C(=O)N[C@@H]([C@@H](C)CC)C(=O)N(C)CC(=O)N(C)[C@H]3C/C=C\CCN(C3=O)[C@@H](Cc3ccc(C(F)(F)F)cc3)C(=O)N(C)CC(=O)N[C@@H](CCc3cc(F)c(C(F)(F)F)c(F)c3)C(=O)N2C1 [PP1423]
IC50 [2, 7]: 4.4 nM

CCC[C@H]1C(=O)N[C@@H]([C@@H](C)CC)C(=O)N(C)CC(=O)N(C)[C@H]2C/C=C\CCN(C2=O)[C@@H](CC2CCC(F)(F)CC2)C(=O)N(C)CC(=O)N[C@@H](CCc2cc(F)c(C(F)(F)F)c(F)c2)C(=O)N2C[C@H](OCC)C[C@H]2C(=O)NC2(CCC2)C(=O)N(C)[C@@H](C2CCCC2)C(=O)N(C)[C@H](C(=O)N(C)C)CC(=O)N1C [PP1450]
IC50 [2, 7]: 50.1 nM

CC[C@H](C)[C@@H]1NC(=O)[C@H](CC)N(C)C(=O)C[C@@H](C(=O)N(C)C)N(C)C(=O)[C@H](C2CCCC2)N(C)C(=O)C2(CCC2)NC(=O)[C@@H]2C[C@@H](C(F)(F)F)CN2C(=O)[C@H](CCc2cc(F)c(C(F)(F)F)c(F)c2)NC(=O)CN(C)C(=O)[C@H](CC2CCC(F)(F)CC2)N2CC/C=C\C[C@@H](C2=O)N(C)C(=O)CN(C)C1=O [PP1451]
IC50 [2, 7]: 61.1 nM

CCO[C@@H]1C[C@H]2C(=O)NC3(CCC3)C(=O)N(C)[C@@H](C3CCCC3)C(=O)N(C)[C@H](C(=O)N(C)C)CC(=O)N(C)[C@@H](CC)C(=O)N[C@@H]([C@@H](C)CC)C(=O)N(C)CC(=O)N(C)[C@H]3C/C=C\CCN(C3=O)[C@@H](CC3CCCCC3)C(=O)N(C)CC(=O)N[C@@H](CCc3cc(F)c(C(F)(F)F)c(F)c3)C(=O)N2C1 [PP1466]
IC50 [2, 7]: 33.2 nM

CCO[C@@H]1C[C@H]2C(=O)NC3(CCC3)C(=O)N(C)[C@@H](C3CCCC3)C(=O)N(C)[C@H](C(=O)N(C)C)CC(=O)N(C)[C@@H](CC3CCCC3)C(=O)N[C@@H]([C@@H](C)CC)C(=O)N(C)CC(=O)N(C)[C@H]3C/C=C\CCN(C3=O)[C@@H](CC3CCCCC3)C(=O)N(C)CC(=O)N[C@@H](CCc3cc(F)c(C(F)(F)F)c(F)c3)C(=O)N2C1 [PP1472]
IC50 [2, 7]: 37.1 nM

CCCOC[C@H]1C(=O)N[C@@H]([C@@H](C)OCC)C(=O)N(C)CC(=O)N(C)[C@H]2C/C=C\CCN(C2=O)[C@@H](Cc2ccc(C)cc2)C(=O)N(C)CC(=O)N[C@@H](CCc2ccc(C(F)(F)F)c(OC)c2)C(=O)N2C[C@@H](C)C[C@H]2C(=O)NC2(CC(C)(C)C2)C(=O)N(C)[C@@H](C2CCCC2)C(=O)N(C)[C@H](C(=O)N(C)CC)CC(=O)N1C [PP2423]
NRAS /KRAS [1, 8]: A (a compound having 10 or more and less than 20 is denoted as A) | HRAS /KRAS (HRAS wild-type protein; [9]): A (a compound having 10 or more and less than 20 is denoted as A) | IC50 ([2]; NCI-H441 cells, 4 days): 71.9 nM

CC[C@H](C)[C@@H]1NC(=O)[C@H](COC)N(C)C(=O)C[C@@H](C(=O)N(C)C)N(C)C(=O)[C@H](C2CCCC2)N(C)C(=O)C2(CC(C)(C)C2)NC(=O)[C@@H]2C[C@@H](OC3CCCC3)CN2C(=O)[C@H](CCc2cc(F)c(C(F)(F)F)c(F)c2)NC(=O)CN(C)C(=O)[C@H](Cc2ccc(C)cc2)N2CC/C=C\C[C@@H](C2=O)N(C)C(=O)CN(C2CC2)C1=O [PP2626]
NRAS /KRAS [1, 8]: A (a compound having 10 or more and less than 20 is denoted as A) | HRAS /KRAS (HRAS wild-type protein; [9]): A (a compound having 10 or more and less than 20 is denoted as A) | IC50 ([2]; NCI-H441 cells, 4 days): 33.4 nM

CCO[C@@H]1C[C@H]2C(=O)NC3(CC(C)(C)C3)C(=O)N(C)[C@@H](C3CCCC3)C(=O)N(C)[C@H](C(=O)N(C)C)CC(=O)N(C)[C@@H]([C@@H](C)OC)C(=O)N[C@@H]([C@@H](C)CC)C(=O)N3CCC[C@H]3C(=O)N(C)[C@H]3C/C=C\CCN(C3=O)[C@@H](Cc3ccc(C)cc3)C(=O)N(C)CC(=O)N[C@@H](CCc3ccc(C(F)(F)F)c(OC)c3)C(=O)N2C1 [PP3213]
Kd [3]: 0.6 nM | NRAS /KRAS [1, 8]: A (a compound having 10 or more and less than 20 is denoted as A) | HRAS /KRAS (HRAS wild-type protein; [9]): A (a compound having 10 or more and less than 20 is denoted as A) | IC50 [4]: 61.4 nM

CCO[C@@H]1C[C@H]2C(=O)NC3(CC(C)(C)C3)C(=O)N(C)[C@@H](C3CCCC3)C(=O)N(C)[C@H](C(=O)N(C)C)CC(=O)N(C)[C@@H]([C@@H](C)OC)C(=O)N[C@@H]([C@@H](C)CC)C(=O)N3CCC[C@H]3C(=O)N(C)[C@H]3C/C=C\CCN(C3=O)[C@@H](Cc3ccc(C)cc3)C(=O)N(C)CC(=O)N[C@@H](CCc3cc(F)c(C(F)(F)F)c(F)c3)C(=O)N2C1 [PP3214]
Kd [3]: 0.48 nM | NRAS /KRAS [1, 8]: A (a compound having 10 or more and less than 20 is denoted as A) | HRAS /KRAS (HRAS wild-type protein; [9]): A (a compound having 10 or more and less than 20 is denoted as A) | IC50 [4]: 45.8 nM

CCO[C@@H]1C[C@H]2C(=O)NC3(CC(C)(C)C3)C(=O)N(C)[C@@H](C3CCCC3)C(=O)N(C)[C@H](C(=O)N(C)CC)CC(=O)N(C)[C@@H]([C@H](C)OC)C(=O)N[C@@H]([C@@H](C)CC)C(=O)N(C)CC(=O)N(C)[C@H]3C/C=C\CCN(C3=O)[C@@H](Cc3ccc(C(F)(F)F)cc3)C(=O)N(C)CC(=O)N[C@@H](CCc3ccc(C(F)(F)F)c(OC)c3)C(=O)N2C1 [PP3216]
IC50 ([2]; NCI-H441 cells, 4 days): 22.1 nM

CCO[C@@H]1C[C@H]2C(=O)NC3(CC(C)(C)C3)C(=O)N(C)[C@@H](C3CCCC3)C(=O)N(C)[C@H](C(=O)N(C)CC)CC(=O)N(C)[C@@H]([C@H](C)OC)C(=O)N[C@@H]([C@@H](C)CC)C(=O)N(C)CC(=O)N(C)[C@H]3C/C=C\CCN(C3=O)[C@@H](Cc3ccc(C(F)(F)F)cc3)C(=O)N(C)CC(=O)N[C@@H](CCc3ccc(C(F)(F)F)c(Cl)c3)C(=O)N2C1 [PP3218]
IC50 ([2]; NCI-H441 cells, 4 days): 15.1 nM

CCO[C@@H]1C[C@H]2C(=O)NC3(CC(C)(C)C3)C(=O)N(C)[C@@H](C3CCCC3)C(=O)N(C)[C@H](C(=O)N(C)CC)CC(=O)N(C)[C@@H]([C@H](C)OC)C(=O)N[C@@H]([C@@H](C)CC)C(=O)N(C)CC(=O)N(C)[C@H]3C/C=C\CCN(C3=O)[C@@H](Cc3ccc(C)cc3)C(=O)N(C)CC(=O)N[C@@H](CCc3ccc(C(F)(F)F)c(OC)c3)C(=O)N2C1 [PP3225]
IC50 ([2]; NCI-H441 cells, 4 days): 12.1 nM
